Results taken from PubChem BioAssay AID330 (DTP/NCI, 2004).
Where “and” joins values, the source holds several entries; their conditions need not be identical. Equal values may be shown once. Toxic doses and inconclusive results are not listed. The calls were made as follows: active = survival T/C of 150% or more; inactive = T/C below 125% in these data.

System: P388 leukemia ip, CD2F1 mice, survival T/C
Experiment: NCI In Vivo Anticancer Drug Screen. Data for tumor model P388 Leukemia (intraperitoneal) in CD2F1 (CDF1) mice
Conditions: endpoint: median survival time, higher = longer survival
Procedure, shortened: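 Mice carrying the transplanted tumor received test compound or vehicle. Survival was recorded in each group, and the value is the treated-group measurement divided by that of the vehicle-treated control group.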

[1] = dose: 100.0 mg/kg/injection, schedule: Q01DX001 (ip), vehicle: Klucel (hydroxypropylcellulose) (HPC)
[2] = dose: 50.0 mg/kg/injection, schedule: Q01DX009 (ip), vehicle: saline with Tween-80
[3] = dose: 100.0 mg/kg/injection, schedule: Q01DX009 (ip), vehicle: saline with Tween-80
[4] = dose: 200.0 mg/kg/injection, schedule: Q01DX009 (ip), vehicle: saline with Tween-80
[5] = dose: 6.25 mg/kg/injection, schedule: Q01DX009 (ip), vehicle: saline with Tween-80
[6] = dose: 50.0 mg/kg/injection, schedule: Q01DX009 (ip), vehicle: Klucel (hydroxypropylcellulose) (HPC)
[7] = dose: 100.0 mg/kg/injection, schedule: Q01DX009 (ip), vehicle: Klucel (hydroxypropylcellulose) (HPC)
[8] = dose: 200.0 mg/kg/injection, schedule: Q01DX009 (ip), vehicle: Klucel (hydroxypropylcellulose) (HPC)
[9] = dose: 25.0 mg/kg/injection, schedule: Q01DX005 (ip), vehicle: saline with Tween-80
[10] = dose: 50.0 mg/kg/injection, schedule: Q01DX005 (ip), vehicle: saline with Tween-80

Measured: T/C

Cc1ccc(S(=O)(=O)N/N=C/c2c(-c3ccc(Cl)cc3)nc3n2CCS3)cc1
inactive: [1] 100 % of control | dose: 200.0 mg/kg/injection, schedule: Q01DX001 (ip), vehicle: Klucel (hydroxypropylcellulose) (HPC) 92 % of control | dose: 400.0 mg/kg/injection, schedule: Q01DX001 (ip), vehicle: Klucel (hydroxypropylcellulose) (HPC) 94 % of control

COC(=O)c1csccc1=O
inactive: dose: 50.0 mg/kg/injection, schedule: Q01DX005 (ip), vehicle: Klucel (hydroxypropylcellulose) (HPC) 112 % of control | dose: 100.0 mg/kg/injection, schedule: Q01DX005 (ip), vehicle: Klucel (hydroxypropylcellulose) (HPC) 97 % of control | dose: 200.0 mg/kg/injection, schedule: Q01DX005 (ip), vehicle: Klucel (hydroxypropylcellulose) (HPC) 95 % of control

COC(=O)[C@]1(C)CCC[C@]2(C)c3ccc(C(C)C)cc3C(=O)C[C@@H]12
inactive: dose: 60.0 mg/kg/injection, schedule: Q01DX005 (ip), vehicle: saline with Tween-80 95 % of control | dose: 120.0 mg/kg/injection, schedule: Q01DX005 (ip), vehicle: saline with Tween-80 94 % of control | dose: 240.0 mg/kg/injection, schedule: Q01DX005 (ip), vehicle: saline with Tween-80 93 % of control

Nc1ccccc1OCCCn1cc(-c2ccc(Cl)c(Cl)c2)c(N)nc1=O
inactive: dose: 7.5 mg/kg/injection, schedule: Q01DX005 (ip), vehicle: Klucel (hydroxypropylcellulose) (HPC) 103 % of control | dose: 15.0 mg/kg/injection, schedule: Q01DX005 (ip), vehicle: Klucel (hydroxypropylcellulose) (HPC) 96 % of control | dose: 30.0 mg/kg/injection, schedule: Q01DX005 (ip), vehicle: Klucel (hydroxypropylcellulose) (HPC) 93 % of control

CCCCOc1ccc(NC(=O)Nc2nnc(C)s2)cc1
inactive: [2] 99 % of control | [3] 89 % of control | [4] 86 % of control

Cc1c2ccccc2c(C)c2c1ccc1ccccc12
inactive: dose: 9.3 mg/kg/injection, schedule: Q01DX009 (ip), vehicle: saline with Tween-80 109 % of control | dose: 12.5 mg/kg/injection, schedule: Q04DX003 (ip), vehicle: other 104 % of control | dose: 25.0 mg/kg/injection, schedule: Q01DX009 (ip), vehicle: saline with Tween-80 98 % of control and 100 % of control and 116 % of control | dose: 25.0 mg/kg/injection, schedule: Q04DX003 (ip), vehicle: other 116 % of control | [2] 100 % of control | dose: 50.0 mg/kg/injection, schedule: Q04DX003 (ip), vehicle: other 116 % of control | dose: 100.0 mg/kg/injection, schedule: Q04DX003 (ip), vehicle: other 111 % of control
active: dose: 3.13 mg/kg/injection, schedule: Q01DX009 (ip), vehicle: saline with Tween-80 167 % of control | dose: 4.0 mg/kg/injection, schedule: Q01DX009 (ip), vehicle: saline with Tween-80 163 % of control | dose: 6.2 mg/kg/injection, schedule: Q01DX009 (ip), vehicle: saline with Tween-80 163 % of control | [5] 180 % of control and 184 % of control | dose: 12.5 mg/kg/injection, schedule: Q01DX009 (ip), vehicle: saline with Tween-80 175 % of control

[O-][N+](CCO)(CCO)c1ncnc2nc[nH]c12
inactive: dose: 50.0 mg/kg/injection, schedule: Q01DX005 (ip), vehicle: suspension in saline 102 % of control | dose: 100.0 mg/kg/injection, schedule: Q01DX005 (ip), vehicle: suspension in saline 106 % of control | dose: 200.0 mg/kg/injection, schedule: Q01DX005 (ip), vehicle: suspension in saline 102 % of control

CC12CC(=O)NC(=O)N1CCS2 (stereo not drawn)
inactive: [6] 106 % of control | [7] 100 % of control | [8] 92 % of control

O=C(CCl)Nc1ccc2c(c1)C(=O)c1cccn1-2
inactive: dose: 25.0 mg/kg/injection, schedule: Q01DX001 (ip), vehicle: Klucel (hydroxypropylcellulose) (HPC) 97 % of control | dose: 25.0 mg/kg/injection, schedule: Q04DX003 (ip), vehicle: Klucel (hydroxypropylcellulose) (HPC) 92 % of control | dose: 50.0 mg/kg/injection, schedule: Q01DX001 (ip), vehicle: Klucel (hydroxypropylcellulose) (HPC) 97 % of control | dose: 50.0 mg/kg/injection, schedule: Q04DX003 (ip), vehicle: Klucel (hydroxypropylcellulose) (HPC) 97 % of control | [1] 96 % of control | dose: 100.0 mg/kg/injection, schedule: Q04DX003 (ip), vehicle: Klucel (hydroxypropylcellulose) (HPC) 107 % of control

CC1C=NNC1=O (stereo not drawn)
inactive: [5] 112 % of control | dose: 125.0 mg/kg/injection, schedule: Q01DX009 (ip), vehicle: other 120 % of control | dose: 125.0 mg/kg/injection, schedule: Q01DX009 (ip), vehicle: saline with Tween-80 100 % of control | dose: 250.0 mg/kg/injection, schedule: Q01DX009 (ip), vehicle: other 115 % of control
active: dose: 500.0 mg/kg/injection, schedule: Q01DX009 (ip), vehicle: other 175 % of control | dose: 1000.0 mg/kg/injection, schedule: Q01DX009 (ip), vehicle: saline with Tween-80 172 % of control

CC(=O)OCC1OC(Nc2[nH]c(=O)n(C)c(=O)c2N=O)C(OC(C)=O)C(OC(C)=O)C1OC(C)=O (stereo not drawn)
inactive: dose: 100.0 mg/kg/injection, schedule: Q04DX002 (ip), vehicle: saline with Tween-80 104 % of control | dose: 200.0 mg/kg/injection, schedule: Q04DX002 (ip), vehicle: saline with Tween-80 103 % of control | dose: 400.0 mg/kg/injection, schedule: Q04DX002 (ip), vehicle: saline with Tween-80 102 % of control

CCCCN(CCCC)CCC(=O)c1ccc(Cl)c2ccccc12
inactive: [9] 97 % of control | [10] 105 % of control

N#C/C(=C/c1ccco1)c1ccc(Cl)cc1
inactive: [6] 90 % of control | [7] 95 % of control | [8] 92 % of control

COc1ccc2c(c1)-c1nn(CCO)c(-c3ccccn3)c1CC2
inactive: [6] 109 % of control | [7] 106 % of control | [8] 106 % of control

N=c1ccn2c(n1)OC1C(O)C(CO)OC12 (stereo not drawn)
inactive: dose: 600.0 mg/kg/injection, schedule: Q01DX009 (ip), vehicle: saline 91 % of control
active: dose: 50.0 mg/kg/injection, schedule: Q01DX009 (ip), vehicle: saline 200 % of control | dose: 75.0 mg/kg/injection, schedule: Q01DX009 (ip), vehicle: saline 156 % of control | dose: 100.0 mg/kg/injection, schedule: Q01DX009 (ip), vehicle: saline sonified 181 % of control | dose: 100.0 mg/kg/injection, schedule: Q01DX009 (ip), vehicle: saline 222 % of control | dose: 150.0 mg/kg/injection, schedule: Q01DX009 (ip), vehicle: saline 175 % of control | dose: 160.0 mg/kg/injection, schedule: Q01DX005 (ip), vehicle: saline 150 % of control | dose: 160.0 mg/kg/injection, schedule: Q01DX005 (iv), vehicle: saline 161 % of control | dose: 200.0 mg/kg/injection, schedule: Q01DX009 (ip), vehicle: saline sonified 168 % of control | dose: 200.0 mg/kg/injection, schedule: Q01DX009 (ip), vehicle: saline 272 % of control | dose: 300.0 mg/kg/injection, schedule: Q01DX009 (ip), vehicle: saline 200 % of control | dose: 320.0 mg/kg/injection, schedule: Q01DX005 (ip), vehicle: saline 170 % of control | dose: 320.0 mg/kg/injection, schedule: Q01DX005 (iv), vehicle: saline 184 % of control | dose: 400.0 mg/kg/injection, schedule: Q01DX009 (ip), vehicle: saline sonified 181 % of control | dose: 400.0 mg/kg/injection, schedule: Q01DX009 (ip), vehicle: saline 272 % of control | dose: 640.0 mg/kg/injection, schedule: Q01DX005 (ip), vehicle: saline 203 % of control | dose: 640.0 mg/kg/injection, schedule: Q01DX005 (iv), vehicle: saline 194 % of control | dose: 800.0 mg/kg/injection, schedule: Q01DX009 (ip), vehicle: saline sonified 181 % of control

N#Cc1ccccc1Cl
inactive: [2] 100 % of control | [3] 101 % of control | [4] 98 % of control

CCCCCCC1C(C#N)C(=O)NC(=O)C1C#N (stereo not drawn)
inactive: [6] 96 % of control | [7] 95 % of control | [8] 93 % of control

CC1=CCCCN1C(=O)CC1C=CCS1(=O)=O (stereo not drawn)
inactive: [9] 100 % of control | [10] 103 % of control | dose: 100.0 mg/kg/injection, schedule: Q01DX005 (ip), vehicle: saline with Tween-80 103 % of control

CC(=O)NC(Cc1ccc(F)cc1)C(=O)O (stereo not drawn)
inactive: [2] 101 % of control and 109 % of control | [3] 102 % of control and 109 % of control | [4] 107 % of control and 95 % of control | dose: 400.0 mg/kg/injection, schedule: Q01DX009 (ip), vehicle: saline with Tween-80 107 % of control and 113 % of control | dose: 600.0 mg/kg/injection, schedule: Q01DX009 (ip), vehicle: saline with Tween-80 112 % of control and 124 % of control
